Experimental findings from ChEMBL document CHEMBL1151513, “Stereospecific synthesis of chiral acyclic analogues of guanosine” (1992) are described below.

Test [1] concerns MT4. The experiment in a line: Compound was tested for its cytotoxic effect against MT-4 cells at 1 mM; 1 to 10 uM. Type of test: functional. As to conditions: Homo sapiens, read-out: CD50 (the source's name).
The nature of test [2]: Compound was tested for its in vitro inhibitory effect on the replication of DNA and RNA viruses at 1 mM; No inhibition. Type of test: functional.
Test [3] has as its system MT4. In words: Compound was tested for its cytotoxic effect against MT-4 cells at 1 mM;value between 10-100 uM. Type of test: functional. As to conditions: Homo sapiens, read-out: CD50 (the source's name).
The test system of test [4] is MT4. In words: Compound was tested for its cytotoxic effect against MT-4 cells at 1 mM; No effect. The format is functional, cell-based. As to conditions: Homo sapiens.

The source made the active and inactive calls. The calls are words filed in the database; no cut-off is given here.

Turning to `Nc1nc(O)c2ncn(C(CCO)OCCO)c2n1` (stereo not drawn), the CC50 in the test with MT4 [1] was below 10 µM. The result in test [2] was inactive.

Consider `Nc1nc(O)c2ncn(C3CC(O)C(O)CO3)c2n1` (stereo not drawn), for which the CC50 with MT4 [3] was below 100 µM. The outcome in test [2] was inactive.

For `Nc1nc(O)c2ncn(C(CO)OCCO)c2n1` (stereo not drawn), the result (in test [2]; with MT4 [4]) was inactive.

As for `Nc1nc(O)c2ncn(C(OCCO)C(O)CO)c2n1` (stereo not drawn), the outcome (in test [2]; in the test with MT4 [4]) was inactive.
